# Experimental data reported in publication PMC4236622 (Cancer Chemotherapy and Pharmacology, 2014).
# Experiments:
# HT29 colon tumor [1] = assay: Activity in HT29 colon tumor xenograft model; type: in vivo, mouse; settings: for Median TTE: endpoint 1,000 mm3; for Survivors not reaching tumor endpoint: endpoint 1,000 mm3 or Day 73; for Tumor regression, Complete / Tumor regression, Partial: HT29 colon tumor model, animals/group
# Source text: (§1) Tumor volume was estimated as described above.
# (§2) Studies were terminated on Days 59 (HT29), 61 (NCI-H460), 72 (MCF-7), 60 (A2780, q7dx3), 76 (A2780 qdx1), and 84 (NCI-N87).
# (§3) Kaplan–Meier plots were constructed to show the percentage of animals remaining in the study to perform the logrank test. Median tumor growth curves show group median tumor volumes as a function of time. When an animal exited the study due to tumor size, the final tumor volume recorded for the animal was included with the data used to calculate the group median tumor volume at subsequent time points.
# NCI-H460 lung tumor [2] = assay: Activity in NCI-H460 lung tumor xenograft model; type: in vivo, mouse; settings: for Median TTE: endpoint 1,500 mm3; for Survivors not reaching tumor endpoint: endpoint 1,500 mm3 or Day 57; for Tumor regression, Complete / Tumor regression, Partial: NCI-H460 lung tumor model, animals/group
# Source text: as §1, §2, §3
# MCF-7 breast tumor = assay: Activity in MCF-7 breast tumor xenograft model; type: in vivo, mouse
# Source text: as §1, §2, §3
# NCI-N87 gastric tumor = assay: Activity in NCI-N87 gastric tumor xenograft model; type: in vivo, mouse
# Source text: as §1, §2, §3
# A2780 ovarian tumor = assay: Activity in A2780 ovarian tumor xenograft model; type: in vivo, mouse
# Source text: as §1, §2, §3
# [3] = Plasma and tumor pharmacokinetics in tumor-bearing mice (HT29 and NCI-H460, model not distinguished); settings: after conventional irinotecan 40 mg/kg iv Days 0, 4, 8
# Protocol: (§4) The length and width of each tumor was recorded 2–3 times a week, and the corresponding tumor volume was estimated using the formula L × W ^2/2 = mm^3, where L and W refer to the larger and smaller perpendicular tumor dimensions, respectively. Animals found moribund or with tumors ≥4,000 mm^3, ulcerated, or sloughed off were euthanized prior to scheduled termination. […] Plasma was harvested, frozen on dry ice, and stored at −80 °C until assayed. Immediately following blood collection, animals were euthanized, and the tumors were excised, frozen in liquid nitrogen, and stored at −80 °C until assayed.
# [4] = Tolerability in mouse xenograft studies (body weight, mortality); type: in vivo; settings: all doses, all xenograft models
# Source text: as §1
# [5] = humans, cited from earlier work; for time post-dose at which concentrations fall below 0.1 ng/mL: following irinotecan infusion (350 mg/m2 every 21 days), reference not given
# [6] = mice; no reference given; cited from earlier work
# HT29 colon tumor [7] = assay: Tumor PK/PD study in HT29 tumor-bearing mice (tumor volume, inhibitory Emax model); type: in vivo, mouse; settings: Emax fixed at 1
# Protocol: as §4
# (§5) Inhibitory E max response PK/PD models based on the Gompertz equation [32] were developed for both tumor types to represent the rate of tumor growth as a function of tumor SN38 concentration. A schematic diagram of the PK/PD model is shown in Online Resource 1. […] The PD parameter values k gr (tumor intrinsic growth rate; day^−1), Limit (limit of tumor growth), and EC 50 (half-maximal effective inhibitory concentrations; μg/g) were optimized using Runge–Kutta 4 integration and the multiple-fit curve fitting module of Berkeley Madonna.
# NCI-H460 lung tumor [8] = assay: Tumor PK/PD study in NCI-H460 tumor-bearing mice (tumor volume, inhibitory Emax model); type: in vivo, mouse; settings: Emax fixed at 1
# Protocol: as §4, §5
# [9] = set-up: method as in PMID 1651156; settings: cited from earlier work
# [10] = Pharmacokinetics across nonclinical species (mouse, rat, dog); settings: rats and dogs, after conventional irinotecan
# Protocol: Blood samples were collected via a peripheral vein into blood collection tubes containing 1/20th the plasma volume of a dimethyl sulfoxide solution containing 50 mM phenylmethyl sulfonyl fluoride and 1 % acetic acid (v/v). Plasma was harvested by centrifugation at 2,100×g for 20 min at 4 °C. Plasma was further stabilized by addition of 1 % acetic acid and stored at −80 °C until assayed.
# Tumor tissue samples were homogenized in a 9× volume of homogenization buffer (containing sodium fluoride, phenylmethyl sulfonyl fluoride, and sodium dodecyl sulfate) prior to extraction of analytes. SN38 from tumor homogenate was extracted using protein precipitation with acetonitrile and quantified by LC–MS/MS using SN38 calibration standards. LC–MS/MS used a Synergy Hydro, 3 µm, 50 × 2.0-mm column, operated at 50 °C, at a flow rate of 0.4 mL/min with a gradient consisting of 0.1 % formic acid in water and 0.1 % formic acid in acetonitrile, coupled to an API 4000 (Applied Biosystems). […] The predicted mouse and measured rat and dog concentration–time profiles were analyzed with noncompartmental methods within WinNonlin (Professional version 5.2; Pharsight Corporation, Mountain View, CA) to estimate customary PK parameters.
# [11] = MCF-7 breast tumor model, 40 mg/kg Q4dx3 iv, animals/group
# [12] = NCI-N87 gastric tumor model, 60 mg/kg Q7dx3 iv, animals/group
# [13] = A2780 ovarian tumor model, 100 mg/kg Q7dx3 iv, animals/group
compound,measurement,setting,value
CCc1c2c(nc3ccc(OC(=O)N4CCC(N5CCCCC5)CC4)cc13)-c1cc3c(c(=O)n1C2)COC(=O)[C@]3(O)CC [Irinotecan],TGD,"HT29 colon tumor [1]; HT29, 40 mg/kg Q4dx3 iv",10 days
same,Median TTE,"HT29 colon tumor [1]; HT29, 40 mg/kg Q4dx3 iv",26 days
same,Survivors not reaching tumor endpoint,"HT29 colon tumor [1]; HT29, 40 mg/kg Q4dx3 iv",0/10
same,TGD,"HT29 colon tumor [1]; HT29, 90 mg/kg Q4dx3 iv",11 days
same,Median TTE,"HT29 colon tumor [1]; HT29, 90 mg/kg Q4dx3 iv",27 days
same,Survivors not reaching tumor endpoint,"HT29 colon tumor [1]; HT29, 90 mg/kg Q4dx3 iv",0/10
same,regression responses (animals),"HT29 colon tumor [1]; HT29, Q4dx3",no tumor regression
same,"Tumor regression, Complete",HT29 colon tumor [1]; 40 mg/kg Q4dx3 iv,0/10
same,"Tumor regression, Partial",HT29 colon tumor [1]; 40 mg/kg Q4dx3 iv,0/10
same,"Tumor regression, Complete",HT29 colon tumor [1]; 90 mg/kg Q4dx3 iv,0/10
same,"Tumor regression, Partial",HT29 colon tumor [1]; 90 mg/kg Q4dx3 iv,0/10
same,regression responses (animals),"NCI-H460 lung tumor [2]; H460, Q4dx3",no tumor regression
same,TGD,"NCI-H460 lung tumor [2]; NCI-H460, 40 mg/kg Q4dx3 iv",11 days
same,Median TTE,"NCI-H460 lung tumor [2]; NCI-H460, 40 mg/kg Q4dx3 iv",23 days
same,Survivors not reaching tumor endpoint,"NCI-H460 lung tumor [2]; NCI-H460, 40 mg/kg Q4dx3 iv",0/10
same,TGD,"NCI-H460 lung tumor [2]; NCI-H460, 90 mg/kg Q4dx3 iv",12 days
same,Median TTE,"NCI-H460 lung tumor [2]; NCI-H460, 90 mg/kg Q4dx3 iv",24 days
same,Survivors not reaching tumor endpoint,"NCI-H460 lung tumor [2]; NCI-H460, 90 mg/kg Q4dx3 iv",0/10
same,"Tumor regression, Complete",NCI-H460 lung tumor [2]; 40 mg/kg Q4dx3 iv,0/10
same,"Tumor regression, Partial",NCI-H460 lung tumor [2]; 40 mg/kg Q4dx3 iv,0/10
same,"Tumor regression, Complete",NCI-H460 lung tumor [2]; 90 mg/kg Q4dx3 iv,0/10
same,"Tumor regression, Partial",NCI-H460 lung tumor [2]; 90 mg/kg Q4dx3 iv,0/10
same,TGD,"MCF-7 breast tumor; MCF-7, 40 mg/kg Q4dx3 iv",22 days
same,Median TTE,"MCF-7 breast tumor; MCF-7, 40 mg/kg Q4dx3 iv, endpoint 700 mm3",59 days
same,Survivors not reaching tumor endpoint,"MCF-7 breast tumor; MCF-7, 40 mg/kg Q4dx3 iv, endpoint 700 mm3 or Day 73",2/10
same,regression responses / regression rate (animals),"MCF-7 breast tumor; MCF-7, Q4dx3",≤ 30%
same,"Tumor regression, Complete",MCF-7 breast tumor; [11],3/10
same,"Tumor regression, Partial",MCF-7 breast tumor; [11],0/10
same,TGD,"NCI-N87 gastric tumor; NCI-N87, 60 mg/kg Q7dx3 iv",12 days
same,Median TTE,"NCI-N87 gastric tumor; NCI-N87, 60 mg/kg Q7dx3 iv, endpoint 800 mm3",30 days
same,Survivors not reaching tumor endpoint,"NCI-N87 gastric tumor; NCI-N87, 60 mg/kg Q7dx3 iv, endpoint 800 mm3 or Day 84",0/10
same,"Tumor regression, Complete",NCI-N87 gastric tumor; [12],0/10
same,"Tumor regression, Partial",NCI-N87 gastric tumor; [12],0/10
same,TGD,"A2780 ovarian tumor; A2780, 100 mg/kg Q7dx3 iv",15 days
same,Median TTE,"A2780 ovarian tumor; A2780, 100 mg/kg Q7dx3 iv, endpoint 2,000 mm3",29 days
same,Survivors not reaching tumor endpoint,"A2780 ovarian tumor; A2780, 100 mg/kg Q7dx3 iv, endpoint 2,000 mm3 or Day 60",0/10
same,"Tumor regression, Complete",A2780 ovarian tumor; [13],0/10
same,"Tumor regression, Partial",A2780 ovarian tumor; [13],0/10
same,plasma irinotecan AUC,[3],1.2 µg·days/mL
same,tumor irinotecan AUC,[3],4.2 µg·days/g
same,maximum body weight loss,[4],≤ 16%
same,treatment-related deaths,[4],no treatment-related deaths
same,time post-dose at which concentrations fall below 0.1 ng/mL,[5],5 to 7 days
same,single-dose LD10,[6],~ 120 mg/kg
"CCc1c2c(nc3ccc(O)cc13)-c1cc3c(c(=O)n1C2)COC(=O)[C@]3(O)CC [SN38, 10-hydroxy-7-ethyl camptothecin]",EC50 (half-maximal effective inhibitory tumor SN38 concentration),HT29 colon tumor [7],0.20 µg/g
same,EC50 (half-maximal effective inhibitory tumor SN38 concentration),NCI-H460 lung tumor [8],1.2 µg/g
same,"cytotoxicity in vitro, potency compared with irinotecan",[9],"100- to 1,000 fold"
same,t1/2 of SN38,[5]; conventional irinotecan,24 to 47 h
same,time post-dose at which concentrations fall below 0.1 ng/mL,[5],5 to 7 days
same,time post-dose at which plasma SN38 was undetectable,[10],24 h
